Experimental data from patent US20120065187A1 (ALCON RESEARCH, LTD, priority 2008, published 2012).

What was measured:
human H1 = target: T1, human H1 (Homo sapiens, UniProt P35367); assay: In vitro histamine receptor cell-based assay (aequorin bioluminescence), H1 antagonism; details: CHO-K1 cells expressing human H1 and aequorin; histamine at EC80; read-out: H1 Antagonist EC50
T1 construct: host or cells: CHO-K1
Summary of the method: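 Antagonism read as drop in aequorin luminescence after histamine challenge at a predetermined EC80, following 15 min compound pretreatment at room temperature. Cells: CHO-K1 carrying human H1, or H4 with Gα16; signal as AUC or amplitude, normalised to 10 μM diphenhydramine (H1) or JNJ7777120 (H4).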

[1] = system: Hartley VAF outbred guinea pigs; assay: Allergic conjunctivitis in passively sensitized guinea pigs (conjunctival EPO activity); type: in vivo; set-up: key: +: a 0.01% bid dose was statistically equivalent to dexamethasone with respect to reduction of EPO activity; −: the compound was statistically inferior to dexamethasone and not different than vehicle; details: reduction of conjunctival EPO activity vs dexamethasone; for BID activity: 0.01% bid topical, 1 hour prior to and 8 hours after ovalbumin challenge; for QD activity: ≦0.1% qd topical, 1 hour prior to ovalbumin challenge
Experimental: Male Hartley VAF outbred guinea pigs were passively sensitized to ovalbumin by a single OD subconjunctival injection of undiluted guinea pig anti-ovalbumin antiserum 24 hours before OD topical challenge with 500 μg ovalbumin in saline. Control animals were injected with saline only and challenged with ovalbumin. To determine acute phase drug efficacy, 30 min after challenge animals were clinically scored by a masked observer for severity of signs of conjunctivitis based on a standard scale. Test compounds were administered topically 1 hour prior to challenge (QD protocol), or 1 hour prior to challenge and again 8 hours after challenge (BID protocol). Twenty-four hours after challenge, animals were euthanized and conjunctivae were harvested for determination of tissue eosinophil peroxidase (EPO) concentration as a marker of allergic inflammation. Homogenates of freshly collected tissues were prepared by shaking the tissues in 2 mL round-bottom tubes containing 0.5 mL of homogenization buffer (50 mM Tris HCl, pH 8.0, 6 mM KBr) and one 5-mm stainless steel bead on a Qiagen TissueLyser at 30 Hz for 5 min. Homogenates were frozen and thawed once, then centrifuged at 10,000 rpm for 5 min. EPO activity in supernatants was measured by reacting diluted homogenates with a solution of 6 mM o-phenylenediamine substrate and 8.8 mM H2O2 in homogenization buffer for 3 min. The reaction was stopped with 4M H2SO4 and absorbances were measured at […] on a spectrophotometric plate reader. Total EPO in samples was calculated from a standard curve of recombinant human EPO in each assay. EPO activity was normalized to total protein concentration (Pierce BCA assay) in supernatants. Background EPO activity was determined from the unsensitized, antigen-challenged control group. Percent inhibition was calculated from the sensitized, antigen-challenged, vehicle-treated control group in each experiment. Ovalbumin-injected animals dosed topically with 0.1% w/v dexamethasone (dex) served as positive control. Groups were compared by ANOVA with Dunnett's or Tukey's post-hoc tests where appropriate with significance assigned at the 95% confidence level.
The table below summarizes the results.

human H4 = target: T2, human H4 (Homo sapiens, UniProt Q9H3N8); assay: In vitro histamine receptor cell-based assay (aequorin bioluminescence), H4 antagonism; details: CHO-K1 cells expressing human H4, aequorin and Gα16; histamine at EC80; read-out: H4 Antagonist EC50
T2 construct: host or cells: CHO-K1
Summary of the method: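 Antagonism read as loss of aequorin luminescence after histamine (EC80 final) addition, following 15 min room-temperature compound pretreatment of coelenterazine-h-loaded (5 μM) CHO-K1 cells co-expressing human H4 and Gα16. Efficacy given relative to 10 μM JNJ7777120; agonism excluded in separate no-histamine runs.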

T1 sequence (P35367 whole entry): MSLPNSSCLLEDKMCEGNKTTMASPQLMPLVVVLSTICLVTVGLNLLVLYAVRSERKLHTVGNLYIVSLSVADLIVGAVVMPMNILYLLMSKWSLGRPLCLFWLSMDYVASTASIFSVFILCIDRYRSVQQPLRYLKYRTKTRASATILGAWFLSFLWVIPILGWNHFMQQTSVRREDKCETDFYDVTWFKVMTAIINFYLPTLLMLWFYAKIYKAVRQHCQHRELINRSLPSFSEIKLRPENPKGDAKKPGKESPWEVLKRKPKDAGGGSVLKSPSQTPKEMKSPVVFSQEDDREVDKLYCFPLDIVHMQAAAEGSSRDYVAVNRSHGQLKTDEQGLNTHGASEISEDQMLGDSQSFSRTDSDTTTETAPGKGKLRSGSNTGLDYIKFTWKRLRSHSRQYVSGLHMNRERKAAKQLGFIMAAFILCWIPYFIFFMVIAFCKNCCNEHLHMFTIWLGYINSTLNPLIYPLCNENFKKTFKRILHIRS

Row | EC50 (human H1) [µM] | EC50 (human H4) [µM] | Structure (SMILES) | BID activity [1] | QD activity [1]
1 | > 10 | < 10 | CN1CCN(c2nc3cc(Br)c(F)cc3n3cnnc23)CC1 [Example 199, 7-bromo-8-fluoro-4-(4-methylpiperazin-1-yl)-[1,2,4]triazolo[4,3-a]quinoxaline] |  | 
2 | > 10 | < 10 | Fc1cc2c(cc1C(F)(F)F)nc(N1CCNCC1)c1nnnn12 [Example 200, 8-fluoro-4-(piperazin-1-yl)-7-(trifluoromethyl)tetrazolo[1,5-a]quinoxaline] |  | 
3 | > 10 | < 10 | CN1CCN(c2nc3cc(C(F)(F)F)c(F)cc3n3nnnc23)CC1 [Example 201, 8-fluoro-4-(4-methylpiperazin-1-yl)-7-(trifluoromethyl)tetrazolo[1,5-a]quinoxaline] |  | 
4 | > 10 | < 10 | Cc1nc2c(N3CCN(C)CC3)nc3ccc(C(F)(F)F)cc3c2o1 [Example 214, 2-methyl-4-(4-methylpiperazin-1-yl)-8-(trifluoromethyl)oxazolo[4,5-c]quinoline] |  | 
5 | > 10 | < 10 | Cc1nc2c(N3CCNCC3)nc3ccc(C(F)(F)F)cc3c2o1 [Example 215, 2-methyl-4-(piperazin-1-yl)-8-(trifluoromethyl)oxazolo[4,5-c]quinoline] |  | 
6 | > 10 | < 10 | Cc1nc2c(N3CCN(C)CC3)nc3cc(F)c(Cl)cc3c2o1 [Example 216, 8-chloro-7-fluoro-2-methyl-4-(4-methylpiperazin-1-yl)oxazolo[4,5-c]quinoline] |  | 
7 | > 10 | < 10 | Cc1nc2c(N3CCNCC3)nc3cc(F)c(Cl)cc3c2o1 [Example 217, 8-chloro-7-fluoro-2-methyl-4-(piperazin-1-yl)oxazolo[4,5-c]quinoline] |  | 
8 | > 10 | < 10 | CN1CCN(c2nc3ccc(C(F)(F)F)cc3c3conc23)CC1 [Example 218, 4-(4-methylpiperazin-1-yl)-8-(trifluoromethyl)isoxazolo[3,4-c]quinoline] |  | 
9 | > 10 | < 10 | CN1CCN(c2nc3cc(C(F)(F)F)ccc3c3conc23)CC1 [Example 220, 4-(4-Methylpiperazinyl)-7-(trifluoromethyl)isoxazolo[3,4-c]quinoline] |  | 
10 | > 10 | < 10 | CN1CCN(c2nc3ccc(Br)cc3c3conc23)CC1 [Example 222, 8-bromo-4-(4-methylpiperazin-1-yl)isoxazolo[3,4-c]quinoline] |  | 
11 | < 10 | < 10 | Brc1ccc2nc(N3CCNCC3)c3nocc3c2c1 [Example 223, 8-bromo-4-(piperazin-1-yl)isoxazolo[3,4-c]quinoline] |  | 
12 | > 10 | < 10 | CN1CCN(c2nc3ccc(C(F)(F)F)c(F)c3n3cnnc23)CC1 [Example 236, 9-fluoro-4-(4-methylpiperazin-1-yl)-8-(trifluoromethyl)-[1,2,4]triazolo[4,3-a]quinoxaline] |  | 
13 | < 10 | < 10 | CN1CCN(c2nc3cc(Cl)ccc3c3cccnc23)CC1 [Example 249, 8-chloro-5-(4-methylpiperazin-1-yl)benzo[f][1,7]naphthyridine] |  | 
14 | < 10 | < 10 | CN1CCN(c2nc3cc(Cl)ccc3c3nccnc23)CC1 [Example 250, 8-chloro-5-(4-methylpiperazin-1-yl)pyrazino[2,3-c]quinoline] |  | 

More lines, now with the values behind:

Row | Structure (SMILES) | EC50 (human H1) [µM] | EC50 (human H4) [µM] | BID activity [1] | QD activity [1]
15 | CN1CCN(c2nc3ccc(Cl)cc3n3ccnc23)CC1 [Example 7, 8-Chloro-4-(4-methylpiperazin-1-yl)imidazo[1,2-a]quinoxaline] | > 10 | < 10 | − | 
16 | Cc1ccc2nc(N3CCN(C)CC3)c3nncn3c2c1 [Example 21, 8-Methyl-4-(4-methylpiperazin-1-yl)-[1,2,4]triazolo[4,3-a]quinoxaline] | > 10 | < 10 | − | 
17 | CN1CCN(c2nc3ccc(C(F)(F)F)cc3n3cnnc23)CC1 [Example 23, 4-(4-methylpiperazin-1-yl)-8-(trifluoromethyl)-[1,2,4]triazolo[4,3-a]quinoxaline] | > 10 | < 10 | + | 
18 | CN1CCN(c2nc3ccc(C(F)(F)F)cc3n3nnnc23)CC1 [Example 27, 4-(4-methylpiperazin-1-yl)-8-(trifluoromethyl)tetrazolo[1,5-a]quinoxaline] | > 10 | < 10 |  | −
19 | CN1CCN(c2nc3cc(F)c(Cl)cc3n3cnnc23)CC1 [Example 31, 8-chloro-7-fluoro-4-(4-methylpiperazin-1-yl)-[1,2,4]triazolo[4,3-a]quinoxaline] | > 10 | < 10 |  | −
20 | Fc1cc2nc(N3CCNCC3)c3nncn3c2cc1Cl [Example 32, 8-chloro-7-fluoro-4-(piperazin-1-yl)-[1,2,4]triazolo[4,3-a]quinoxaline] | > 10 | < 10 | + | 
21 | CN1CCN(c2nc3cc(F)c(F)cc3n3cnnc23)CC1 [Example 37, 7,8-difluoro-4-(4-methylpiperazin-1-yl)-[1,2,4]triazolo[4,3-a]quinoxaline] | > 10 | < 10 | + | 
22 | CN1CCN(c2nc3cc(Cl)c(Cl)cc3n3cnnc23)CC1 [Example 39, 7,8-dichloro-4-(4-methylpiperazin-1-yl)-[1,2,4]triazolo[4,3-a]quinoxaline] | > 10 | < 10 | + | 
23 | Fc1cc2nc(N3CCNCC3)c3nncn3c2cc1C(F)(F)F [Example 41, 7-Fluoro-4-(piperazin-1-yl)-8-(trifluoromethyl)-[1,2,4]triazolo[4,3-a]quinoxaline] | > 10 | < 10 |  | −
24 | Fc1cc(C(F)(F)F)cc2c1nc(N1CCNCC1)c1nncn12 [Example 49, 6-Fluoro-4-(piperazin-1-yl)-8-(trifluoromethyl)-[1,2,4]triazolo[4,3-a]quinoxaline] | > 10 | < 10 |  | −
25 | Brc1ccc2nc(N3CCNCC3)c3nncn3c2c1 [Example 52, 8-bromo-4-(piperazin-1-yl)-[1,2,4]triazolo[4,3-a]quinoxaline] | > 10 | < 10 |  | −
26 | CN1CCN(c2nc3ccc(Br)cc3n3cnnc23)CC1 [Example 54, 8-bromo-4-(4-methylpiperazin-1-yl)-[1,2,4]triazolo[4,3-a]quinoxaline] | > 10 | < 10 |  | −
27 | Clc1ccc2nc(N3CCCNCC3)c3nncn3c2c1 [Example 66, 8-chloro-4-(1,4-diazepan-1-yl)-[1,2,4]triazolo[4,3-a]quinoxaline] | > 10 | < 10 |  | −
28 | Cc1nc2c3cc(Cl)c(F)cc3nc(N3CCN(C)CC3)n2n1 [Example 95, 9-Chloro-8-fluoro-2-methyl-5-(4-methylpiperazin-1-yl)-[1,2,4]triazolo[1,5-c]quinazoline] | > 10 | < 10 | − | 
29 | Cc1ccc2nc(N3CCN(C)CC3)n3nc(C)nc3c2c1 [Example 99, 2,9-Dimethyl-5-(4-methylpiperazin-1-yl)-[1,2,4]triazolo[1,5-c]quinazoline] | > 10 | < 10 | + | −
30 | Fc1cc2c(cc1Br)nc(N1CCNCC1)c1nncn12 [Example 198, 7-bromo-8-fluoro-4-(piperazin-1-yl)-[1,2,4]triazolo[4,3-a]quinoxaline] | > 10 | < 10 |  | 
31 | Cc1nc2c3cc(Cl)ccc3nc(N3CCN4CCCC4C3)n2n1 (stereo not drawn) [Example 245, 9-chloro-5-(hexahydropyrrolo[1,2-a]pyrazin-2(1H)-yl)-2-methyl-[1,2,4]triazolo[1,5-c]quinazoline] | < 10 | < 10 |  | 
